Results published in US12595269B2, “Morpholine-like monoamine releasers” (Solvonis Therapeutics Ireland Holdings Limited, priority 2022, dated 2026).

Test system: extracellular dopamine (DA), serotonin (5-HT), and noradrenaline (NE) levels in the nucleus accumbens
Test: In vivo microdialysis of monoamines in rat nucleus accumbens after intraperitoneal administration
Design: species or system Sprague Dawley rats
Details: rat NAcc microdialysis, IP
Description: Methods and Procedure: This study was conducted in compliance with previously described procedures to assure data integrity, adherence to GLP regulations, and standard preclinical study and surgery procedures. The in vivo microdialysis technique was applied to measure the over-time variations of DA, 5-HT, and NE extracellular (EC) concentrations in conscious, freely-moving Sprague Dawley rats. Levels of the neurotransmitters in microdialysis samples were determined using LC-MS/MS analysis. The experiment was also conducted with MDMA, which was used for comparative purposes.
As it relates to cannula implantation, the rats were anesthetized with isoflurane 4% in oxygen (2-2.5 L/min), then the isoflurane concentration 2-2.5% was maintained via a nose cone adapted to the stereotaxic apparatus. The rats were treated with meloxicam (0.2 mg/kg, subcutaneously, sc; Meloxidolor) and amoxicilline (150 mg/kg, sc, Betamox LA). The skull was then shaved and disinfected. Rats were then placed in a stereotaxic apparatus for small animals. One vertical guide cannula was inserted through a 1 mm hole drilled on the exposed skull. Coordinates—with respect to bregma—to target specific brain areas, followed indications from stereotaxic atlas of the rat brain. Specifically a guide cannula (MAB 4.12.IC, Agn Tho's AB, Lidingo, Sweden) was inserted in the NAcc (anteroposterior+1.6; lateral −1.6; dorsoventral −6.0). The guide cannula was then secured with dental cement and 2-4 screws. At the end of the surgery the animal was isolated in a single cage during recovery, for a period of at least one week, during which animal health conditions were checked twice daily and the weight recorded twice a week. Animals continued to be housed singly throughout the experiment. One day before the experiment the cannula stylet was removed and a microdialysis probe with a dialyzing length of 2 mm (MAB 4.12.2 Cu, Agn Tho's AB, Lidingo, Sweden) was inserted. Probes can be re-used 2 times for 2 experimental sessions after appropriate cleaning with fresh milliQ water.
Post-surgery, the rats were maintained in a heating chamber prior to waking up in order to avoid hypothermia that could be caused by anaesthesia. 5 mL of physiologic solution was subcutaneously administered immediately after surgery, and once/day for 2-3 days, if signs of dehydration are noticed. Meloxicam (Meloxidolor) 0.2 mg/kg was again administered subcutaneously the day after surgery as well as after 48h after surgery together with Amoxicilline Long Acting (Betamox LA) 150 mg/kg. Health status and body weight was checked every day during the first week.
The animals were treated with test compounds described herein, MDMA, or their vehicle (saline) according to a Latin square design over 5 separate experimental days (one day/week). The treatments were administered in a volume of 1 mL/kg intraperitoneally.
On the day of the experiment, each animal was taken into the laboratory in its home cage. Inlet tubing of the probe was attached to a dual quartz-lined two channel liquid swivel mounted on a low mass spring counterbalance arm which, in turn, was connected to a gas-tight syringe on a microinfusion pump. […] An equilibration period of about two hours of perfusion was allowed before collecting samples. Following the equilibration period, 4 basal samples were collected for each experimental animal followed by further 10 post-treatment samples. Samples were collected every 20 minutes (up to 3 hours and 20 minutes post-treatment) by means of a refrigerated auto-sampler (Univentor 820 Microsampler, Agn tho's, Sweden) maintained at +8° C. At the end of all experimental sessions, 2 μL of 0.1% methylene blue solution was injected through the microdialysis probe, animals were euthanized, and their brains removed to confirm the correct probe-position.
The concentrations of DA, 5-HT and NE in CSF samples were determined using an optimized method based on LC-MS/MS analysis. […]

| Compound | 5HT level relative to baseline levels (100%) (20 min post-administration) | DA level relative to baseline levels (100%) (20 min post-administration) | NE level relative to baseline levels (100%) (20 min post-administration) | 5HT level relative to baseline levels (100%) (40 min post-administration) | DA level relative to baseline levels (100%) (40 min post-administration) | NE level relative to baseline levels (100%) (40 min post-administration) | DA level relative to baseline levels (100%) (60 min post-administration) | NE level relative to baseline levels (100%) (60 min post-administration) | 5HT level relative to baseline levels (100%) (200 min post-administration) | DA level relative to baseline levels (100%) (200 min post-administration) | NE level relative to baseline levels (100%) (200 min post-administration) | 5HT level relative to baseline levels (100%) (60 min post-administration) |
| --- | --- | --- | --- | --- | --- | --- | --- | --- | --- | --- | --- | --- |
| CNC(C)Cc1ccc2c(c1)OCO2 (centres unmarked) [MDMA, reference compound] | 130% | 120% | 120% | 2150% | 400% | 500% | 560% | 500% | 900% | 300% | 300% |  |
| Clc1ccc(C23CNC(CO2)C3)cc1Cl (centres unmarked) [522A, 1-(3,4-dichlorophenyl)-2-oxa-5-azabicyclo[2.2.1]heptane] | 100% | 100% | 130% | 380% | 160% | 150% | 185% | 160% | 200% | 125% | 125% | 480% |
